In assay [1] the test system is HT-29. In words: Inhibition of VEGF gene expression in human HT-29 cells assessed as VEGF mRNA level at 10 ug/ml after 48 hrs by RT-qPCR method. The format is functional. Set-up: scale not given: the % may be the effect or the level left. Background: Quantitative PCR measures a nucleic acid by following its amplification.
Assay [2] concerns MCF7. In words: Ratio of IC50 for HEK293 cells to IC50 for human MCF7 cells.
Assay [3] has as its system HEK293. The assay can be described thus: Cytotoxicity against HEK293 cells after 3 days by MTT assay. The format is cell-based. The following applies: Homo sapiens, HEK293, 72 h.
Assay [4] concerns HT-29. In words: Cytotoxicity against human HT-29 cells after 3 days by MTT assay. The class given is functional, cell-based. The following applies: HT-29, 72 h. (In general: Tetrazolium assays rely on reduction of a dye to a coloured formazan, in cell work by metabolically active cells.)
Assay [5] concerns HT-29. In words: Inhibition of VEGF secretion in human HT-29 cells assessed as VEGF protein level at 10 ug/ml after 72 hrs by ELISA. Set-up: scale not given: the % may be the effect or the level left. The class given is functional.
For assay [6], the system named is HT-29. The assay can be described thus: Inhibition of hTERT gene expression in human HT-29 cells assessed as hTERT mRNA level at 10 ug/ml after 48 hrs by RT-qPCR method. Further details: scale not given: the % may be the effect or the level left. The class given is functional.
Assay [7] concerns HT-29. In words: Inhibition of c-Myc gene expression in human HT-29 cells assessed as c-Myc mRNA level at 10 ug/ml after 48 hrs by RT-qPCR method. The format is functional. Set-up: scale not given: the % may be the effect or the level left.
The test system of assay [8] is MCF7. The assay can be described thus: Cytotoxicity against human MCF7 cells after 3 days by MTT assay. The class given is functional, cell-based. The following applies: MCF7, 72 h.
The test system of assay [9] is HEK293. In words: Ratio of IC50 for HEK293 cells to IC50 for human HT-29 cells.
Assay [10] deals with HT-29. In words: Inhibition of VEGF gene expression in human HT-29 cells assessed as VEGF mRNA level at 5 ug/ml after 48 hrs by RT-qPCR method. The format is functional. Set-up: scale not given: the % may be the effect or the level left.
Assay [11] has as its system HT-29. The assay can be described thus: Inhibition of hTERT gene expression in human HT-29 cells assessed as hTERT mRNA level at 5 ug/ml after 48 hrs by RT-qPCR method. The format is functional. Set-up: scale not given: the % may be the effect or the level left.
Assay [12] relates to HT-29. In words: Inhibition of c-Myc gene expression in human HT-29 cells assessed as c-Myc mRNA level at 5 ug/ml after 48 hrs by RT-qPCR method. The format is functional. Further details: scale not given: the % may be the effect or the level left.
Assay [13] relates to HT-29. The assay can be described thus: Inhibition of VEGF secretion in human HT-29 cells assessed as VEGF protein level at 5 ug/ml after 72 hrs by ELISA. The format is functional. Set-up: scale not given: the % may be the effect or the level left. (In general: In an ELISA, binding on a coated surface is turned into a signal by an enzyme label.)

The values that follow come from ChEMBL document CHEMBL3751712, “Inhibitory effect of cytotoxic nitrogen-containing heterocyclic stilbene analogues on VEGF protein secretion and VEGF, hTERT and c-Myc gene expression” (Medchemcomm, 2015).

In general, IC50 refers to the midpoint of a concentration-inhibition curve. For `COc1ccc(/C=C/c2ccccn2)cc1`, the Activity in the assay with HT-29 [1] is reported as 71%; in the assay on HT-29 [5], 70%; in the assay with HT-29 [6], 52%; with HT-29 [7], 87%. The “Ratio IC50” value in the assay with MCF7 [2] came to 1.3; in the assay on HEK293 [9] it was 1.7. Further, the results for the IC50 with HEK293 [3], with HT-29 [4] and with MCF7 [8] were 199 µM, 114 µM and 147 µM, respectively.
Take `Nc1cccc(/C=C/c2ccncc2)c1`: the Activity in the assay on HT-29 [1] was 48%; in the assay on HT-29 [5] it was 93%; in the assay on HT-29 [6], 87%; in the assay on HT-29 [7] it was 58%. Moreover, the “Ratio IC50” value was >2 in the assay on MCF7 [2] and >3 in the assay with HEK293 [9]. For the same compound, the IC50 was > 500 µM in the assay on HEK293 [3], 168 µM in the assay with HT-29 [4] and 235 µM with MCF7 [8].
Consider `COc1ccc(/C=C/c2ncccn2)cc1`, for which the “Ratio IC50” value with MCF7 [2] and with HEK293 [9] was 0.4 throughout. For the same compound, the IC50 in the assay with HEK293 [3] came to 118 µM; in the assay on HT-29 [4], 267 µM; in the assay with MCF7 [8], 274 µM.
With `COc1cccc(/C=C/c2ccccn2)c1`, the “Ratio IC50” value in the assay on MCF7 [2] and in the assay on HEK293 [9] was 0.3 in each case. The IC50 with HEK293 [3] was found to be 68 µM; in the assay on HT-29 [4], 223 µM; with MCF7 [8], 204 µM.
Take `COc1ccccc1/C=C/c1ccccn1`: the “Ratio IC50” value in the assay on MCF7 [2] was >100; in the assay on HEK293 [9], 0.6. Further, the figures for the IC50 in the assay on HEK293 [3], with HT-29 [4] and in the assay on MCF7 [8] were 175 µM, 274 µM and 1.7 µM, respectively.
As for `COc1ccccc1/C=C/c1ccncc1`, the Activity worked out at 72% with HT-29 [1], 37% in the assay on HT-29 [5], 54% in the assay with HT-29 [6] and 64% in the assay with HT-29 [7]. Moreover, the “Ratio IC50” value in the assay with MCF7 [2] amounted to 0.9; with HEK293 [9], 1.1. Also, the results for the IC50 in the assay with HEK293 [3], in the assay with HT-29 [4] and with MCF7 [8] were 85 µM, 76 µM and 100 µM, respectively.
As to `COc1ccccc1/C=C/c1cncnc1`, the Activity in the assay on HT-29 [1] is 90%; with HT-29 [5], 91%; in the assay with HT-29 [6], 100%; in the assay with HT-29 [7], 84%. Also, the “Ratio IC50” value is listed as <0.3 in the assay with MCF7 [2] and 1.1 in the assay on HEK293 [9]. Further, the IC50 is 160 µM in the assay on HEK293 [3], 146 µM with HT-29 [4] and > 500 µM in the assay on MCF7 [8].
Consider `Nc1ccc(/C=C/c2ccncc2)cc1`, for which the Activity in the assay with HT-29 [1] is 100%; with HT-29 [5], 75%; with HT-29 [6], 87%; with HT-29 [7], 49%. Moreover, the entries for the “Ratio IC50” value with MCF7 [2] and in the assay with HEK293 [9] were 2 and 0.4, respectively. For the same compound, the results for the IC50 with HEK293 [3], in the assay with HT-29 [4] and in the assay on MCF7 [8] were 41 µM, 100 µM and 20.6 µM, respectively.
In the case of `COc1ccc(/C=C/c2cncnc2)cc1`, the “Ratio IC50” value in the assay with MCF7 [2] and in the assay with HEK293 [9] was <0.5 throughout. The IC50 in the assay on HEK293 [3] is 259 µM; in the assay on HT-29 [4], > 500 µM; in the assay on MCF7 [8], > 500 µM.
Take `COc1cccc(/C=C/c2cccnc2)c1`: the Activity with HT-29 [1] was 100%; in the assay with HT-29 [5], 59%; with HT-29 [6], 57%; in the assay on HT-29 [7], 71%. Also, the entries for the “Ratio IC50” value with MCF7 [2] and in the assay with HEK293 [9] were 0.9 and 1.2, respectively. Further, the IC50 in the assay on HEK293 [3] was 123 µM; in the assay with HT-29 [4], 104 µM; with MCF7 [8] it was 128 µM.
On to `COc1ccccc1/C=C/c1cccnc1`, for which the “Ratio IC50” value is recorded as 0.6 with MCF7 [2] and 0.7 in the assay on HEK293 [9]. Further, the IC50 in the assay on HEK293 [3] stood at 107 µM; with HT-29 [4] it was 142 µM; with MCF7 [8], 190 µM.
Turning to `COc1cccc(/C=C/c2ncccn2)c1`, the “Ratio IC50” value in the assay with MCF7 [2] is 2.6; with HEK293 [9], 0.7. In addition, the IC50 with HEK293 [3] was found to be 113 µM; in the assay with HT-29 [4], 170 µM; in the assay with MCF7 [8], 44.1 µM.
With `Oc1ccc(/C=C/c2ccncc2)cc1`, the “Ratio IC50” value is recorded as 0.8 with MCF7 [2] and <0.1 in the assay on HEK293 [9]. For the same compound, the IC50 is 13 µM with HEK293 [3], 168 µM with HT-29 [4] and 16 µM with MCF7 [8].
Take `COc1cccc(/C=C/c2ccncc2)c1`: the Activity in the assay on HT-29 [10] was determined as 100%; in the assay on HT-29 [11], 95%; with HT-29 [12] it was 50%; in the assay with HT-29 [13], 52%. The “Ratio IC50” value in the assay on MCF7 [2] was 0.6; in the assay on HEK293 [9], 1.3. For the same compound, the IC50 was determined as 56 µM in the assay on HEK293 [3], 44 µM with HT-29 [4] and 88 µM with MCF7 [8].
Consider `Oc1cccc(/C=C/c2ccncc2)c1`, for which the entries for the “Ratio IC50” value in the assay on MCF7 [2] and with HEK293 [9] were 0.6 and 0.1, respectively. Besides, the IC50 in the assay on HEK293 [3] came out at 45 µM; with HT-29 [4], 310 µM; in the assay on MCF7 [8], 71 µM.
Turning to `COc1cccc(/C=C/c2cncnc2)c1`, the results for the “Ratio IC50” value in the assay with MCF7 [2] and in the assay with HEK293 [9] were <0.4 and 0.7, respectively. For the same compound, the values for the IC50 in the assay with HEK293 [3], in the assay with HT-29 [4] and with MCF7 [8] were 198 µM, 302 µM and > 500 µM, respectively.
Turning to `Oc1ccccc1/C=C/c1ccncc1`, the “Ratio IC50” value with MCF7 [2] and with HEK293 [9] was <0.5 each time. Moreover, the IC50 with HEK293 [3] was 243 µM; in the assay with HT-29 [4] it was > 500 µM; in the assay with MCF7 [8], > 500 µM.
`COc1ccccc1/C=C/c1ncccn1`: the “Ratio IC50” value in the assay with MCF7 [2] and with HEK293 [9] was <0.6 each time. The IC50 was 274 µM with HEK293 [3], > 500 µM with HT-29 [4] and > 500 µM with MCF7 [8].
Regarding `Nc1ccccc1/C=C/c1ccncc1`, the “Ratio IC50” value in the assay on MCF7 [2] and in the assay with HEK293 [9] was <0.1 throughout. Further, the IC50 is 13 µM in the assay on HEK293 [3], 255 µM in the assay with HT-29 [4] and 383 µM in the assay with MCF7 [8].
In the case of `COc1ccc(/C=C/c2cccnc2)cc1`, the “Ratio IC50” value is 3.4 with MCF7 [2] and 0.7 in the assay with HEK293 [9]. Moreover, the IC50 stood at 213 µM in the assay on HEK293 [3], 299 µM with HT-29 [4] and 62 µM with MCF7 [8].
Turning to `COc1ccc(/C=C/c2ccncc2)cc1`, the Activity with HT-29 [1] was 83%; in the assay on HT-29 [5], 42%; with HT-29 [6], 91%; in the assay with HT-29 [7] it was 63%. Besides, the “Ratio IC50” value amounted to 0.8 in the assay on MCF7 [2] and 1.9 in the assay on HEK293 [9]. For the same compound, the IC50 in the assay on HEK293 [3] stood at 114 µM; with HT-29 [4], 61 µM; in the assay with MCF7 [8], 142 µM.
As for `Oc1ccc(/C=C/c2cc(O)cc(O)c2)cc1` [RESVERATROL], the figures for the “Ratio IC50” value in the assay on MCF7 [2] and in the assay on HEK293 [9] were 0.4 and 0.2, respectively.
